Laboratory results reported in publication PMC7762174 (Viruses, 2020).
Where a name gives a salt, the structure may show the parent alone. Read-outs that look alike come from different tables or passages of the source.

What was measured:
SARS-CoV-2 [1] = assay: microbe, parasite or virus in culture; assay type: cell-based; settings: for reduction in viral yield: Vero 76, 3 days
SARS-CoV-2 [2] = assay: microbe, parasite or virus in culture; assay type: cell-based
in vitro [3] = settings: African green monkey
[4] = Neutral Red assay (NRA) cytotoxicity; settings: African green monkey
Vero cells = settings: African green monkey
in vitro [5] = assay type: cell-based; settings: African green monkey
in vitro [6] = assay type: cell-based; settings: human
SARS-CoV-2 [7] = assay type: cell-based
SARS-CoV-2 [8] = assay: microbe, parasite or virus in culture; assay type: cell-based; remark: listed apart in the source
in vitro [9] = settings: African green monkey; remark: listed apart in the source
[10] = tested on: primary human foreskin fibroblasts (HFFs); set-up: method as in ref 28 = [28]; settings: HFF; reported previously; cited from earlier work
HCMV AD169-GFP = assay: microbe, parasite or virus in culture; assay type: cell-based, human cytomegalovirus; settings: Human betaherpesvirus 5, AD169, 168 h
[11] = molecular target: T1, N-terminally truncated recombinant hDHODH enzyme (Homo sapiens, UniProt Q02127); assay: In vitro inhibition of human DHODH; assay type: biochemical
T1 construct: using an N-terminally truncated recombinant hDHODH enzyme as described
T1 sequence (Q02127 29-395 limits assumed): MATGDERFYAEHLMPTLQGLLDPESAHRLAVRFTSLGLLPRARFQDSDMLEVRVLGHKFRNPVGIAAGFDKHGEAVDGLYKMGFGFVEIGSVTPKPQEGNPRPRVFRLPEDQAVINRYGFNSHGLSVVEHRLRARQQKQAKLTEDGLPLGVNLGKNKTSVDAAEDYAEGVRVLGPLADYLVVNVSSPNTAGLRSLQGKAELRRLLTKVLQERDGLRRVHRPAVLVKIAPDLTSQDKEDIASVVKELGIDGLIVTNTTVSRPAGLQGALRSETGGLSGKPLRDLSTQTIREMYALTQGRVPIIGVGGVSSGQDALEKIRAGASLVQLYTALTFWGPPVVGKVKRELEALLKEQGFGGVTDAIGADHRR

human PBMCs [12] = assay: Cytotoxicity in PBMC (MTS)
HIV-1_91US005 [13] = settings: HIV-1, human PBMC, p24 ELISA; 95% CI in brackets
HIV-1_91US005 [14] = settings: HIV-1, human PBMC, RT assay, 7 days; 95% CI in brackets
in vitro [15] = settings: human
[16] = tested on: HCV subgenomic replicon of genotype 1b; assay: HCV subgenomic replicon Luc reporter assay in Huh7; assay type: cell-based; settings: Hepatitis C virus, Huh-7, 24 h
in vitro [17] = settings: human; remark: listed apart in the source
[18] = tested on: primary human foreskin fibroblasts (HFFs)
inflammation in the lung = tested on: inflammation in the lung; set-up: method as in ref 57 = [57]; settings: mouse model of systemic lupus erythematosus; cited from earlier work
HIV-1_91US005 [19] = assay: microbe, parasite or virus in culture; settings: Human immunodeficiency virus 1, PBMC, 168 h
human PBMCs [20] = settings: 7 days, 100 µM
HIV-1_91US005 [21] = assay: microbe, parasite or virus in culture; settings: Human immunodeficiency virus 1, PBMC
[22] = tested on: Huh7 human hepatoma cell line; assay: Cytotoxicity in Huh7 replicon cells (CytoTox-1 cell proliferation assay); settings: highest concentration (30 µM), Huh7
[23] = as above; settings: human
MPO in colonic tissue = tested on: MPO in colonic tissue; set-up: method as in ref 57 = [57]; settings: murine TNBS-induced colitis model; cited from earlier work
[24] = Severe acute respiratory syndrome coronavirus 2, RT-qPCR, Vero cells, read-out: Anti-SARS-CoV-2 drug efficacy on Vero cells: EC50
[25] = Severe acute respiratory syndrome coronavirus 2, Caco-2

C/C(O)=C(\C#N)C(=O)Nc1ccc(C(F)(F)F)cc1 [TFNM, teriflunomide]
EC90 (SARS-CoV-2 [1]; Severe acute respiratory syndrome coronavirus 2, 72 h, Vero 76, USA_WA1/2020, MOI 0.002, VYR, 3 days p.i., read-out: EC90): 14 µM

CCC(CC)COC(=O)[C@H](C)N[P@](=O)(OC[C@H]1O[C@@](C#N)(c2ccc3c(N)ncnn23)[C@H](O)[C@@H]1O)Oc1ccccc1 [RDV, remdesivir]
EC50 (SARS-CoV-2 [2]; [24]): 1.7 ± 1 µM
reduction in viral yield (SARS-CoV-2 [1]; drug alone at 5 µM): ~ 3.8 fold log unit
reduction in viral yield (SARS-CoV-2 [1]; drug alone at 10 µM): > 4.0 fold log unit
CC50 (in vitro [3]): > 20 µM
CC50 [4]: > 100 µM

CCN(CC)CCCC(C)Nc1ccnc2cc(Cl)ccc12 (stereo not drawn) [CQ, chloroquine, reference compound]
EC50 (SARS-CoV-2 [2]; [24]): 2.7 ± 0.9 µM
CC50 (in vitro [3]): > 20 µM

COc1cccc(-c2ccc(NC(=O)C3=C(C(=O)O)CCC3)c(F)c2)c1 [IMU-838, calcium salt of vidofludimus]
EC50 (SARS-CoV-2 [2]; Severe acute respiratory syndrome coronavirus 2, Vero 76, 72 h, read-out: EC50, replicate 3 RT-qPCR): 10 ± 9 µM
EC50 (SARS-CoV-2 [2]; Severe acute respiratory syndrome coronavirus 2, Vero, 48 h, read-out: EC50, replicate 1 RT-qPCR): 6.8 µM
EC50 (SARS-CoV-2 [2]; Severe acute respiratory syndrome coronavirus 2, Vero, 72 h, read-out: EC50, replicate 2 RT-qPCR): 6 µM
EC50 (SARS-CoV-2 [2]; Severe acute respiratory syndrome coronavirus 2, Vero, read-out: Mean EC50 of replicates 1-3): 7.6 ± 5.8 µM
CC50 (Vero cells): > 100 µM
CC90 (in vitro [5]): > 100 µM
CC50 (in vitro [6]): > 60 µM
CC90 (in vitro [6]): > 60 µM
inhibition of viral RNA production (mAb-dsRNA) (SARS-CoV-2 [7]): concentration-dependent IMU-838-mediated inhibition
inhibition of viral spike protein production (mAb-S) (SARS-CoV-2 [7]): concentration-dependent IMU-838-mediated inhibition
EC90 (SARS-CoV-2 [1]; Severe acute respiratory syndrome coronavirus 2, Vero 76, 72 h): 6.2 ± 1.9 µM
reduction in viral yield (SARS-CoV-2 [1]; drug alone at 10 µM): ~ 1.7 fold log unit
reduction of viral plaques (SARS-CoV-2 [8]; 30 µM, CaCo-2, 72 h p.i.): ~ 1.8 log unit
EC50 (SARS-CoV-2 [8]; [25]): 7.5 to 15 µM
EC90 (SARS-CoV-2 [8]; [25]): 15 to 30 µM
viability at 3 days, 100 µM (in vitro [9]): 95%
CC50 (in vitro [9]; CC50): 88.1 ± 3.7 µM

Nc1nc(O)c2ncn(COC(CO)CO)c2n1 [GCV, ganciclovir, reference compound]
CC50 [10]: > 15 µM
EC50 (HCMV AD169-GFP): 1.69 ± 0.8 µM

COC(=O)c1c(-c2c(F)cccc2Cl)noc1-c1cnn(-c2cccc(Cl)c2)c1C(F)(F)F [IMU-CO3]
EC50 (SARS-CoV-2 [2]; [24]): 15.5 ± 4.6 µM
CC50 at 3 days (in vitro [9]; CC50 values on Vero cells): > 100 µM
IC50 [11]: 0.041 µM

Cc1cn([C@H]2C[C@H](N=[N+]=[N-])[C@@H](CO)O2)c(=O)[nH]c1=O [AZT, azidothymidine/zidovudine]
CC50 (human PBMCs [12]): > 1 µM
EC50 (HIV-1_91US005 [13]): 0.00027 µM
EC50 (HIV-1_91US005 [14]): 0.00038 µM

COc1cccc(-c2ccc(NC(=O)C3=C(C(=O)O)CCC3)c(F)c2)c1 [Vido, vidofludimus]
CC50 (in vitro [15]): > 100 µM
EC50 [16]: 5.9 µM
CC50 at 7 days (in vitro [17]): > 100 µM
cytotoxicity [18]: absence of detectable cytotoxicity
inflammation in the lung (inflammation in the lung): decreased inflammation in the lung
EC50 (HIV-1_91US005 [19]): 2.1 µM
reduction in cell viability (human PBMCs [20]): 46.8%
EC50 (HIV-1_91US005 [21]): 1.3 µM
EC50 (HCMV AD169-GFP): 7.4 ± 0.1 µM
reduction in cell viability [22]: 34%
CC50 at 24 h [23]: > 30 µM
levels of MPO in colonic tissue (MPO in colonic tissue): reduced the levels of MPO in colonic tissue
